{"source": "patent US7368287B2", "about": "“Use of L-α-lysophosphatidylcholine to obtain the differentiation of monocytes into mature dendritic cells in vitro” (Biomerieux, priority 2002, dated 2008)", "key": {"PPARδ": {"test_system": "PPARδ", "assay": "PPAR binding activity by gel shift on nuclear proteins of treated monocytes", "type": "cell-based, human", "procedure": "Next, the inventors investigated the transcription factors involved in the maturation process induced by LPC. In order to determine whether PPARs are involved in the LPC-induced maturation, the ability of the two transcription factors PPARγ and PPARδ to bind was analyzed using the gel shift technique. 3 isotypes of PPAR nuclear receptors (peroxisome proliferator-activated receptor) exist: α, γ and δ. PPARγs are the targets for molecules of the thiazolidinedione class, such as ciglitizone, used in the treatment of type II diabetes. PPARδs have a broader expression and can be repressors of PPARγs. The monocytes undergoing differentiation were incubated for two hours with a solution of LPC (40 μM) (“LPC” cells). “Control” cells are also obtained in the absence of LPC in the culture medium. After having harvested the cells, the nuclear proteins were extracted with the Nuclear extract Kit (Sigma). The nuclear proteins were then brought into contact with a ratioactively labeled probe containing a response element recognized by PPARs. […] The PPAR binding activity was determined by measuring the intensity of these bands. These activities are expressed as a percentage with respect to the “control” cells. […]\nThe activity of the PPARγ and PPARδ transcription factors was measured in these cells by the gel shift technique, as described above.\nINTRALIPID® regulates PPARs in vitro. […] The cells were harvested after 1 h, 2 h or 8 h of incubation with INTRALIPID®, the nuclear proteins were extracted and the activity of PPARγ and PPARδ was determined as described in example 6.\nSecondly, a solution of INTRALIPID® (50 μg/ml of phospholipids) was added to the culture medium on the 5th day of monocyte differentiation, 15 minutes before the addition of a solution of LPC (40 μM) (“LPC+Intralipid” cells). […] The cells were harvested after 2 h of incubation, the nuclear proteins were extracted and the activity of PPARγ and PPARδ was determined as described in example 6."}, "BALB/c mice": {"test_system": "BALB/c mice", "assay": "Delayed contact hypersensitivity to the hapten DNFB (ear edema)", "type": "in vivo, mouse", "conditions": "500 nmol LPC on back 10 minutes before DNFB sensitization, 48 h after elicitation", "from_the_text": "LPC can induce a CD8+ T lymphocyte response in vivo. In this example, a test for delayed contact hypersensitivity to haptens was used. In this model, BALB/c mice are sensitized by application of a hapten, DNFB (1-fluoro-2,4-dinitrobenzene, 0.5% solution in 1:1 olive oil/acetone), to the back. Five days later, a non-irritant dose of DNFB (0.2% solution in 1:1 olive oil/acetone) is applied to the left ear, whereas the right ear receives the solvent. In this elicitation phase, CD8^+ T lymphocytes specific for the haptenized proteins are recruited and infiltrate the ear, secreting γIFN and producing an edema.\nA “control” batch of mice was sensitized with DNFB alone and another batch (“LPC” mice) received 500 nmol of LPC by application to the skin of the back of 20 μl of an ethanolic solution of LPC, 10 minutes before the application of DNFB. Five days later, the two batches were treated in the same way for the elicitation phase and the thickening of the ears was measured using a micrometer 48 h after this application."}, "[1]": {"test_system": "monocytes isolated from human peripheral blood", "assay": "Phenotype (CD83, HLA-DR, CD86 expression) by flow cytometry of monocytes differentiated in absence or presence of LPC", "type": "cell-based", "conditions": "6th day of differentiation; 40 μM LPC added on day 5 for 24 hours", "procedure": "Isolation, placing in culture and initiation of the differentiation of monocytes—The monocytes are isolated from human peripheral blood by means of first density gradient centrifugation (620 g; 20 minutes) in Ficoll-Hypaque, followed by second centrifugation (770 g; 20 minutes) in a 50% Percoll solution. The monocytes are then purified by immunomagnetic depletion (Dynal, Oslo, Norway), using a cocktail of anti-CD19 (hydridoma 4G7) (Becton Dickinson, Francklin Lakes, N.J., USA), anti-CD3 (OKT3, American Type Culture Collection, Rockeville, Md.) and anti-CD56 (NKH1, Beckman Coulter, Fullerton, Calif., USA) monoclonal antibodies. The monocytes thus obtained are then purified to at least 90%, as shown by the absence of CD1a markers and the presence of the CD14 marker. The differentiation of the monocytes into dendritic cells is initiated with 40 ng/ml of recombined human GM-CSF (Granulocyte-Macrophage Colony Stimulating Factor) and 250 U/ml of recombined human interleukin IL-4.\nThe monocytes are placed in culture in RPMI 1640 medium (Life Technologies, Rockeville, Md., USA) enriched with 2 mM of glutamine (Life Technologies), 10 mM of Hepes (Life Technologies), […] of gentamycin (Life Technologies) and 10% of lipoprotein-depleted fetal calf serum (LPDS, Sigma, St Quentin-Fallavier, France).\nTreatment of the monocytes with LPC—5 days after the beginning of the differentiation of the monocytes, 40 μM of LPC (L-α-lysophosphatidylcholine; Sigma, St Quentin Fallavier, France) are added to the culture medium for 24 hours. Control cells are also obtained in the absence of LPC in the culture medium.\nThe cells used in this analysis are those obtained on the 6th day of differentiation according to the protocol described in example 1.\nThe phenotype of the “control” and “LPC” cells is analyzed by flow cytometry on a FACSCalibur (Becton Dickinson, Francklin Lakes, N.J., USA) using FITC (fluorosceine isothiocyanate)-conjugated anti-CD14, anti-HLA-DR and anti-CD80 and PE (phycoerythrin)-conjugated anti-CD1a, anti-CD83, anti-CD86 and anti-CD40 (Beckman Coulter). […]"}}, "data": [{"substance": "L-α-lysophosphatidylcholine [LPC]", "values": [{"measurement": "PPARδ binding activity", "setting": "PPARδ; Table 6, LPC 40 μM, two hours, percentage with respect to control cells", "value": 263, "unit": "%"}, {"measurement": "PPARδ activity", "setting": "PPARδ; Table 16, Intralipid 50 μg/ml phospholipids 15 minutes before LPC 40 μM, 2 h, control = 100%", "value": 160, "unit": "%"}, {"measurement": "Thickening of the left ear", "setting": "BALB/c mice; left ear receives DNFB 0.2%", "value": "149 ± 31", "unit": "μm"}, {"measurement": "Thickening of the right ear", "setting": "BALB/c mice; right ear receives solvent", "value": "0 ± 3", "unit": "μm"}, {"measurement": "Expression of CD83", "setting": "[1]", "value": 11.74}, {"measurement": "Expression of CD86", "setting": "[1]", "value": 759.69}, {"measurement": "Expression of HLA-DR", "setting": "[1]", "value": 146.31}]}]}
